Laboratory results published in patent US12358915B2, “METTL3 inhibitory compounds” (STORM THERAPEUTICS LTD., priority 2019, dated 2025).
Where a name gives a salt, the structure may show the parent alone. Read-outs that look alike come from different tables or passages of the source.

Columns and labels:
METTL3/14 = molecular target: T1, METTL3/14 (Homo sapiens, UniProt Q86U44); test: METTL3/14 methyltransferase assay (METTL3_14 RFMS, RapidFire mass spectrometry); assay type: biochemical; conditions: 5 nM METTL3/14, 0.2 μM RNA substrate, 0.5 μM SAM, lower limit of the assay IC50=5 nM, read-out: METTL3_14 RFMS IC50;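 note: recombinant His-tagged METTL3 with FLAG-tagged METTL14 from baculovirus, SAH product quantified by mass spectrometry against isotope-labelled internal standards, 60 min at room temperature, scaled between no-RNA and DMSO-only wells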
T1 construct: The enzyme used was full-length his-tagged METTL3; His; made in house
T1 sequence (Q86U44 whole entry): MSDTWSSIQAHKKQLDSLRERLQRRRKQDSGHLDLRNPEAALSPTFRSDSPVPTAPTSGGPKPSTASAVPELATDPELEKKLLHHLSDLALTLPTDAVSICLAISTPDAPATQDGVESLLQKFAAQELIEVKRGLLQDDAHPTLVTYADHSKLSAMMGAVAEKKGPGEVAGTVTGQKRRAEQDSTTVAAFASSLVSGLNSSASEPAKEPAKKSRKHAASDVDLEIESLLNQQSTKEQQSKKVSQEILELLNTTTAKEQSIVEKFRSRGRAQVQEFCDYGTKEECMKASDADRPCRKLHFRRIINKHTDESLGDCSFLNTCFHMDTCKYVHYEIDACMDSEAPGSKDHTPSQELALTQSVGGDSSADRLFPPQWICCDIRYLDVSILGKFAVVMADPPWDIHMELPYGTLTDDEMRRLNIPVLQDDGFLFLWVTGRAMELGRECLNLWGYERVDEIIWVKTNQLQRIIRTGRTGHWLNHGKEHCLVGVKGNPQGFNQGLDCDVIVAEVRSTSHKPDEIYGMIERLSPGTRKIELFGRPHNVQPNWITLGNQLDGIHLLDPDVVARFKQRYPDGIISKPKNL
T1 sequence (Q9HCE5 whole entry partner): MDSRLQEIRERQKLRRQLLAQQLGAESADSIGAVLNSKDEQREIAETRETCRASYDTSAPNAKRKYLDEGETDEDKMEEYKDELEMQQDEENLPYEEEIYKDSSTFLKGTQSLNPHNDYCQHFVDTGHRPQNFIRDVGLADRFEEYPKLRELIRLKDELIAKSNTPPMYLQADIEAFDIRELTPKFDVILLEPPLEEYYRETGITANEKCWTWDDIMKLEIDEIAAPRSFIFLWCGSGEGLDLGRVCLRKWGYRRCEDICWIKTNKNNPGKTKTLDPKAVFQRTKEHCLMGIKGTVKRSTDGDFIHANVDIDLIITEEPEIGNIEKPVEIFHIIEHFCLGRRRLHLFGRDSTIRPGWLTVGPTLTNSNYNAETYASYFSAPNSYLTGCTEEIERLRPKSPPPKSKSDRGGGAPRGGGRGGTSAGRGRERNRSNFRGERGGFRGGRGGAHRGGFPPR

MOLM-13 cells = test: MOLM13 CTG - analysis of cell proliferation (Cell Titre Glo); assay type: cell-based; conditions: Homo sapiens, geometric mean, read-out: CTG MOLM13 cells IC50 GEOMEAN

Row | SMILES | IC50 (METTL3/14; Compounds 63-265) | further results
1 | OC1(CNCc2ccc3nc(Cn4cc(-c5cccc6[nH]ncc56)nn4)cn3c2)CCCCC1 [Example 328, 1-[[[2-[[4-(1H-indazol-4-yl)triazol-1-yl]methyl]imidazo[1,2-a]pyridin-6-yl]methylamino]methyl]cyclohexanol] |  | IC50 (METTL3/14; Compounds 266-351): 8.84 nM; IC50 (MOLM-13 cells): 3250 nM
2 | O=C(NCc1cn2cc(CNCCC3CCC3)ccc2n1)c1cc(=O)n2ccccc2n1 [Compound 286, N-[[6-[(2-cyclobutylethylamino)methyl]imidazo[1,2-a]pyridin-2-yl]methyl]-4-oxo-pyrido[1,2-a]pyrimidine-2-carboxamide] |  | IC50 (METTL3/14; Compounds 266-351): 19.3 nM; IC50 (MOLM-13 cells): 12300 nM
3 | O=C(NCc1cn2cc(CNCC3CCCCC3)ccc2n1)c1cc(=O)n2ccccc2n1 [Compound 72, N-[(6-{[(cyclohexyl-methyl)amino]methyl}imidazo [1,2-a]pyridin-2-yl)methyl]-4-oxo-4H-pyrido [1,2-a]pyrimidine-2-carboxamide] |  | IC50 (MOLM-13 cells): 8700 nM
4 | CC(C)(C)CNCc1ccc2nc(Cn3cc(-c4cc(C5CC5)cc5[nH]ncc45)nn3)cn2c1 [Example 321, N-[[2-[[4-(6-cyclopropyl-1H-indazol-4-yl)triazol-1-yl]methyl]imidazo[1,2-a]pyridin-6-yl]methyl]-2,2-dimethyl-propan-1-amine] |  | IC50 (METTL3/14; Compounds 266-351): 13.2 nM
5 | O=C(NCc1cn2cc(CNCCC(F)(F)F)ccc2n1)c1cc(=O)n2ccccc2n1 [Compound 85, 4-oxo-N-[(6-{[(3,3,3-trifluoropropyl)amino]methyl}imidazo[1,2-a]pyridin-2-yl)methyl]-4H-pyrido[1,2-a]pyrimidine-2-carboxamide] | 25.5 nM | 
6 | CC1(NCc2ccc3nc(CNC(=O)c4cc(=O)n5ccccc5n4)cn3c2)CCCCC1 [Compound 146, N-[(6-{[(1-methylcyclohexyl)amino]methyl}imidazo[1,2-a]pyridin-2-yl)methyl]-4-oxo-4H-pyrido[1,2-a]pyrimidine-2-carboxamide] | 25.1 nM | 
7 | C[C@H](NCc1ccc2nc(CNC(=O)c3cc(=O)n4ccccc4n3)cn2c1)c1ccccc1 [Compound 76, 4-oxo-N-{[6-({[(1S)-1-phenylethyl]amino}methyl)imidazo [1,2-a]pyridin-2-yl]methyl}-4H-pyrido[1,2-a] pyrimidine-2-carboxamide] | 30 nM | 
8 | O=C(NCc1cn2cc(CNCC3CC4C=CC3C4)ccc2n1)c1cc(=O)n2ccccc2n1 (stereo not shown) [Compound 346, N-[(6-{[({bicyclo[2.2.1]hept-5-en-2-yl}methyl)amino]methyl}imidazo[1,2-a]pyridin-2-yl)methyl]-4-oxo-4H-pyrido[1,2-a]pyrimidine-2-carboxamide] |  | IC50 (METTL3/14; Compounds 266-351): 7.68 nM
9 | O=C(NCc1cn2cc(F)ccc2n1)c1cccc2[nH]ncc12 [Compound 6, N-({6-fluoroimidazo[1,2-a]pyridin-2-yl}methyl)-1H-indazole-4-carboxamide] |  | IC50 (METTL3/14; Compounds 1-62): 9120 nM
10 | CC1(C)COC(CNCc2ccc3nc(CNC(=O)c4cc(=O)n5ccccc5n4)cn3c2)C1 (stereo not shown) [Compound 147, N-{[6-({[(4,4-dimethyloxolan-2-yl)methyl]amino}methyl)imidazo[1,2-a]pyridin-2-yl]methyl}-4-oxo-4H-pyrido[1,2-a] pyrimidine-2-carboxamide] | 224 nM | 
11 | O=C(NCc1cn2cc(CNC3CC(F)(F)C3)ccc2n1)c1cc(=O)n2ccccc2n1 [Compound 110, N-[(6-{[(3,3-difluorocyclobutyl)amino]methyl}imidazo[1,2-a]pyridin-2-yl)methyl]-4-oxo-4H-pyrido[1,2-a] pyrimidine-2-carboxamide] | 102 nM | 
12 | CC1(C)CCN(Cc2ccc3nc(CNC(=O)c4cc(OCCOCCN)cc5[nH]ncc45)cn3c2)CC1 [Example 312, 6-[2-(2-aminoethoxy)ethoxy]-N-[[6-[(4,4-dimethyl-1-piperidyl)methyl]imidazo[1,2-a]pyridin-2-yl]methyl]-1H-indazole-4-carboxamide trihydrochloride] |  | IC50 (METTL3/14; Compounds 266-351): 52.1 nM
13 | COc1cccc(-c2ccc3nc(CNC(=O)c4cccc5[nH]ncc45)cn3c2)c1 [Compound 34, N-{[6-(3-methoxyphenyl)imidazo[1,2-a]pyridin-2-yl]methyl}-1H-indazole-4-carboxamide] |  | IC50 (METTL3/14; Compounds 1-62): 5350 nM
14 | C=Cc1ccc2nc(CNC(=O)c3cc(=O)n4ccccc4n3)cn2c1 [Compound 58, N-({6-ethenylimidazo[1,2-a]pyridin-2-yl}methyl)-4-oxo-4H-pyrido[1,2-a]pyrimidine-2-carboxamide] |  | IC50 (METTL3/14; Compounds 1-62): 299 nM
15 | O=C(NCc1cn2ccc(Br)cc2n1)c1cccc2[nH]ncc12 [Compound 2, N-({7-bromoimidazo[1,2-a]pyridin-2-yl}methyl)-1H-indazole-4-carboxamide] |  | IC50 (METTL3/14; Compounds 1-62): 9840 nM
16 | O=C(NCc1cn2cc(CN3CCCC3)ccc2n1)c1cc(=O)n2ccccc2n1 [Compound 133, 4-oxo-N-({6-[(pyrrolidin-1-yl)methyl]imidazo[1,2-a]pyridin-2-yl}methyl)-4H-pyrido[1,2-a] pyrimidine-2-carboxamide] | 480 nM | 
17 | CC(=O)N(Cc1ccc2nc(CNC(=O)c3cc(=O)n4ccccc4n3)cn2c1)CC1CCC1 [Example 340, N-[(6-{[N-(cyclobutylmethyl)acetamido]methyl}imidazo[1,2-a]pyridin-2-yl)methyl]-4-oxo-4H-pyrido[1,2-a]pyrimidine-2-carboxamide] |  | IC50 (METTL3/14; Compounds 266-351): 6810 nM
18 | O=C(NCc1cn2cc(CNCc3ccn(CC(F)(F)F)n3)ccc2n1)c1cc(=O)n2ccccc2n1 [Compound 105, 4-oxo-N-({6-[({[1-(2,2,2-trifluoroethyl)-1H-pyrazol-3-yl]methyl}amino)methyl]imidazo[1,2-a]pyridin-2-yl}methyl)-4H-pyrido[1,2-a] pyrimidine-2-carboxamide] | 1200 nM | 
19 | O=C(NCc1cn2cc(CNCC3CC34CC4)ccc2n1)c1cc(=O)n2ccccc2n1 (stereo not shown) [Compound 140] | 18.7 nM | 
20 | O=C(NCc1cn2cc(C(O)c3ccccc3)ccc2n1)c1cc(=O)n2ccccc2n1 (stereo not shown) [Compound 56, N-({6-[hydroxy(phenyl)methyl]imidazo[1,2-a]pyridin-2-yl}methyl)-4-oxo-4H-pyrido[1,2-a]pyrimidine-2-carboxamide] |  | IC50 (METTL3/14; Compounds 1-62): 945 nM
21 | CC1(C)CCN(Cc2ccc3nc(CNC(=O)c4cc(=O)c5c(F)cccc5o4)cn3c2)CC1 [Example 310, N-[[6-[(4,4-dimethyl-1-piperidyl)methyl]imidazo[1,2-a]pyridin-2-yl]methyl]-5-fluoro-4-oxo-chromene-2-carboxamide] |  | IC50 (METTL3/14; Compounds 266-351): 186 nM
22 | O=C(NCc1cn2cc(CNC3(C4CCCCC4)CC3)ccc2n1)c1cc(=O)n2ccccc2n1 [Compound 98, N-[(6-{[(1-cyclohexyl-cyclopropyl)amino]methyl}imidazo[1,2-a]pyridin-2-yl)methyl]-4-oxo-4H-pyrido [1,2-a]pyrimidine-2-carboxamide] | 45.6 nM | 
23 | O=C(NCc1cn2cc(CNC3CC3)ccc2n1)c1cc(=O)n2ccccc2n1 [Compound 109, N-({6-[(cyclopropyl-amino)methyl]imidazo[1,2-a]pyridin-2-yl}methyl)-4-oxo-4H-pyrido[1,2-a] pyrimidine-2-carboxamide] | 350 nM | 
24 | O=C(NCc1cn2cc(CNCCOC(F)(F)F)ccc2n1)c1cc(=O)n2ccccc2n1 [Compound 94, 4-oxo-N-{[6-({[2-(trifluoromethoxy)ethyl]amino}methyl)imidazo [1,2-a]pyridin-2-yl]methyl}-4H-pyrido[1,2-a] pyrimidine-2-carboxamide] | 131 nM | 
25 | CC(C)(C)CCNCc1ccc2nc(CNC(=O)c3cc(=O)n4ccccc4n3)cn2c1 [Compound 93, N-[(6-{[(3,3-dimethylbutyl)amino]methyl}imidazo[1,2-a]pyridin-2-yl)methyl]-4-oxo-4H-pyrido[1,2-a] pyrimidine-2-carboxamide] | 13 nM | 
26 | Cc1ccn2cc(CNC(=O)c3cc(=O)n4ccccc4n3)nc2c1 [Compound 17, N-({7-methylimidazo[1,2-a]pyridin-2-yl}methyl)-4-oxo-4H-pyrido[1,2-a]pyrimidine-2-carboxamide] |  | IC50 (METTL3/14; Compounds 1-62): 2240 nM
27 | Cc1ccc2nc(Cn3cc(-c4cccc5[nH]ncc45)nn3)cn2c1 [Compound 69, 4-[1-({6-methylimidazo[1,2-a]pyridin-2-yl}methyl)-1H-1,2,3-triazol-4-yl]-1H-indazole] | 1340 nM | 
28 | O=C(NCc1cn2cc(C(O)c3ccccc3)ccc2n1)c1cccc2[nH]ncc12 (stereo not shown) [Compound 48, N-({6-[hydroxy(phenyl)methyl]imidazo [1,2-a]pyridin-2-yl}methyl)-1H-indazole-4-carboxamide] |  | IC50 (METTL3/14; Compounds 1-62): 2040 nM

Second part, led by results:

Row | IC50 (METTL3/14; Compounds 63-265) | SMILES | further results
29 | 246 nM | CC(C)(C)CNCc1ccc2nc(Cn3cc(-c4cncc5[nH]ncc45)nn3)cn2c1 [Example 256, (2,2-dimethylpropyl)({2-[(4-{1H-pyrazolo[3,4-c]pyridin-4-yl}-1H-1,2,3-triazol-1-yl)methyl]imidazo[1,2-a]pyridin-6-yl}methyl)amine] | 
30 | 84.8 nM | O=C(NCc1cn2cc(CNC3(C4CC4)CC3)ccc2n1)c1cc(=O)n2ccccc2n1 [Compound 197, N-({6-[({[1,1′-bi(cyclopropane)]-1-yl}amino)methyl]imidazo [1,2-a]pyridin-2-yl}methyl)-4-oxo-4H-pyrido [1,2-a]pyrimidine-2-carboxamide] | 
31 | 54.3 nM | C[C@H](NCc1ccc2nc(CNC(=O)c3cc(=O)n4ccccc4n3)cn2c1)C(C)(C)C [Compound 215, N-{[6-({[(2S)-3,3-dimethylbutan-2-yl]amino}methyl)imidazo[1,2-a]pyridin-2-yl]methyl}-4-oxo-4H-pyrido [1,2-a]pyrimidine-2-carboxamide] | 
32 | 3810 nM | O=C(NCc1cn2cc(CNc3cccc(Cl)c3)ccc2n1)c1cc(=O)n2ccccc2n1 [Compound 158, N-[(6-{[(3-chlorophenyl)amino]methyl}imidazo[1,2-a]pyridin-2-yl)methyl]-4-oxo-4H-pyrido[1,2-a]pyrimidine-2-carboxamide] | 
